Results published in patent publication US10143691B2, “Pathogenic control of apoptosis” (CSIR, priority 2014, dated 2018).
“Also recorded” adds a separate entry of the source.

Experiments:
Format in all cases: cell-based
p53pSer46 = experiment: Immunofluorescence staining of p53pSer46 apoptotic mark; settings: Ghost(3) cells, Doxorubicin 500 nM, no HIV
Procedure: (§1) For each experiment, Ghost(3) cells or IPSC-derived primary macrophages were infected or treated with 500 nM Doxorubicin on coverslips, fixed for 10 mins in fresh 4% paraformaldehyde at room temperature, then washed 3 times in PBS and permeabilised for 10 mins in ice-cold methanol at […]. Coverslips were washed once in PBS and incubated in blocking buffer (5% goat serum, 0.3% TritonX100 in PBS) for 60 mins at room temperature. Cells were incubated in primary antibody solution (1% BSA, 0.3% Triton X100 in PBS) overnight at 4° C. Double strand breaks were detected using rabbit polyclonal anti-phosphohistone H2A.X Ser139 (Cell Signaling). Activated ATM was detected using rabbit monoclonal anti-phosphoATM Ser1981 (Cell Signaling). The ability of p53 to regulate apoptosis was detected using rabbit polyclonal antiphosphop53 Ser46 (Cell Signaling). Viral p24 was detected using mouse monoclonal anti-HIV1p24 (AIDS Research and Reference Reagent Program, Division of AIDS, NIAID, NIH). HuR was detected using mouse monoclonal anti-HuR 3A2 (Santa Cruz Biotechnology). hnRNPK was detected using goat polyclonal anti-hnRNPK P20 (Santa Cruz Biotechnology). Coverslips were washed 3 times (5 mins each on an orbital shaker) with wash buffer (0.05% Tween20 in PBS), followed by incubation with secondary antibodies conjugated to either Atto550 or Atto565 or Atto647 for 60 mins at room temperature. […]

HuR = experiment: Immunofluorescence of HuR cellular location in Ghost(3) cells; settings: Ghost(3) cells, Doxorubicin-treated, no HIV
Procedure: as §1, with “Biotechnology).” for “Biotechnology). Coverslips were washed 3 times (5 mins each on an orbital shaker) with wash buffer (0.05% Tween20 in PBS), followed by incubation with secondary antibodies conjugated to either Atto550 or Atto565 or Atto647 for 60 mins at room temperature.”
For each experiment, cells were infected or treated with drugs on coverslips, fixed for 10 mins in fresh 4% paraformaldehyde at room temperature, then washed 3 times in PBS and permeabilised for 10 mins in ice-cold methanol at −20° C. […] Double strand breaks were detected using rabbit polyclonal anti-phospho-histone H2A.X Ser139 (Cell Signaling). Activated ATM was detected using rabbit monoclonal anti-phospho-ATM Ser1981 (Cell Signaling). The ability of p53 to regulate apoptosis was detected using rabbit polyclonal anti-phospho-p53 Ser46 (Cell Signaling). Viral p24 was detected using mouse monoclonal anti-HIV-1-p24 (AIDS Research and Reference Reagent Program, Division of AIDS, NIAID, NIH). HuR was detected using mouse monoclonal anti-HuR 3A2 (Santa Cruz Biotechnology). hnRNP-K was detected using goat polyclonal anti-hnRNP-K P-20 (Santa Cruz Biotechnology). […]

hnRNP-K = experiment: Immunofluorescence of hnRNP-K cellular location in Ghost(3) cells
Procedure: For each experiment, Ghost(3) cells or IPSC-derived primary macrophages were infected or treated with 500 nM Doxorubicin on coverslips, fixed for 10 mins in fresh 4% paraformaldehyde at room temperature, then washed 3 times in PBS and permeabilised for 10 mins in ice-cold methanol at […]. Coverslips were washed once in PBS and incubated in blocking buffer (5% goat serum, 0.3% TritonX100 in PBS) for 60 mins at room temperature. Cells were incubated in primary antibody solution (1% BSA, 0.3% Triton X100 in PBS) overnight at 4° C. Double strand breaks were detected using rabbit polyclonal anti-phosphohistone H2A.X Ser139 (Cell Signaling). Activated ATM was detected using rabbit monoclonal anti-phosphoATM Ser1981 (Cell Signaling). The ability of p53 to regulate apoptosis was detected using rabbit polyclonal antiphosphop53 Ser46 (Cell Signaling). Viral p24 was detected using mouse monoclonal anti-HIV1p24 (AIDS Research and Reference Reagent Program, Division of AIDS, NIAID, NIH). HuR was detected using mouse monoclonal anti-HuR 3A2 (Santa Cruz Biotechnology). hnRNPK was detected using goat polyclonal anti-hnRNPK P20 (Santa Cruz Biotechnology). Coverslips were washed 3 times (5 mins each on an orbital shaker) with wash buffer (0.05% Tween20 in PBS), followed by incubation with secondary antibodies conjugated to either Atto550 or Atto565 or Atto647 for 60 mins at room temperature. Coverslips were washed 3 times (5 mins each on an orbital shaker) with wash buffer (0.05% Tween20 in PBS). Coverslips were incubated in equilibration buffer (0.4% glucose, 2×SCC) for 5 mins and counter stained with 1 mg/ml DAPI (4′,6-diamidino-2-phenylindole; Life Technologies). Coverslips were mounted in glox buffer (3.7 mg/ml glucose oxidase, 1 U catalase) and imaged.
For each experiment, cells were infected or treated with drugs on coverslips, fixed for 10 mins in fresh 4% paraformaldehyde at room temperature, then washed 3 times in PBS and permeabilised for 10 mins in ice-cold methanol at −20° C. Coverslips were washed once in PBS and incubated in blocking buffer (5% goat serum, 0.3% Triton-X100 in PBS) for 60 mins at room temperature. Cells were incubated in primary antibody solution (1% BSA, 0.3% Triton X-100 in PBS) overnight at 4° C. Double strand breaks were detected using rabbit polyclonal anti-phospho-histone H2A.X Ser139 (Cell Signaling). Activated ATM was detected using rabbit monoclonal anti-phospho-ATM Ser1981 (Cell Signaling). The ability of p53 to regulate apoptosis was detected using rabbit polyclonal anti-phospho-p53 Ser46 (Cell Signaling). Viral p24 was detected using mouse monoclonal anti-HIV-1-p24 (AIDS Research and Reference Reagent Program, Division of AIDS, NIAID, NIH). HuR was detected using mouse monoclonal anti-HuR 3A2 (Santa Cruz Biotechnology). hnRNP-K was detected using goat polyclonal anti-hnRNP-K P-20 (Santa Cruz Biotechnology). Coverslips were washed 3 times (5 mins each on an orbital shaker) with wash buffer (0.05% Tween-20 in PBS), followed by incubation with secondary antibodies conjugated to either Atto-550 or Atto-565 or Atto-647 for 60 mins at room temperature. Coverslips were washed 3 times (5 mins each on an orbital shaker) with wash buffer (0.05% Tween-20 in PBS). Coverslips were incubated in equilibration buffer (0.4% glucose, 2×SCC) for 5 mins and counter stained with 1 mg/ml DAPI (4′,6-diamidino-2-phenylindole; Life Technologies). Coverslips were mounted in glox buffer (3.7 mg/ml glucose oxidase, 1 U catalase) and imaged.

In the case of `COc1cccc2c1C(=O)c1c(O)c3c(c(O)c1C2=O)C[C@@](O)(C(=O)CO)C[C@@H]3O[C@H]1C[C@H](N)[C@H](O)[C@H](C)O1` [Doxorubicin], the “phosphorylation of p53 at Ser46” value (p53pSer46) was “phosphorylation of both ATMpSer1981 and p53pSer46 in the nucleus within 8 hours; also recorded: Activated p53 dimers are detected”, the “cellular location of HuR” value (HuR) was “cytoplasmic HuR within 8 hours; also recorded: moved from the nucleus into the cytoplasm within 8 hours of treatment” and the “cellular location of hnRNP-K” value (hnRNP-K; Ghost(3) cells, drug only, no HIV infection) was “nuclear hnRNP-K within 2 hours; also recorded: detected in the nucleus of Doxorubicin-treated cells between 2 and 4 hours post-treatment; also recorded: nuclear hnRNPK within 2 hours”. The “cellular location of hnRNP-K” value (hnRNP-K; cells concurrently infected and treated with Maraviroc, Tenofovir or Raltegravir, Doxorubicin added afterwards) was “hnRNPK localized to the nucleus; also recorded: nuclear hnRNPK within 3 hours of chemical-induced DNA damage”.
